Data from patent US8188011B1, “Optimization of ligand affinity for RNA targets using mass spectrometry” (Isis Pharmaceuticals, Inc., priority 2000, dated 2012).
Several values for one entry are separate records, joined by “and”; a condition that tells them apart may be missing. Equal values may be shown once. Entries after “also recorded” stand apart in the source; their conditions may differ. Read-outs that look alike come from different tables or passages of the source. Marks after values point to notes of the source that are not given here.

Key:
[1] = system: 27 nucleotide fragment of bacterial 16S ribosomal RNA incorporating the A-site; experiment: ESI-FT-ICR MS detection of non-covalent ligand:16S RNA complexes (ion abundance relative to unbound RNA); assay type: binding; conditions: for ion abundance of binary ligand:16S complex relative to unbound 16S RNA: 200 μM ligand, 5 μM target 16S RNA fragment; for affinity for 16S (order of magnitude): ESI-MS assay
Procedure: In separate mixtures, 200 μM of three ligands IBIS-326611 ((2S)-2-amino-3-hydroxy-1-piperazinylpropan-1-one), IBIS-326645 (5-methyl-1-(2-oxo-2-piperazinylethyl)-1,3-dihydropyrimidine-2,4-dione) and a concatenated compound thereof, IBIS-271583 (1-{2-[(3R)-4-(2S)-2-amino-3-hydroxypropanoyl)-3-methylpiperazinyl]-2-oxoethyl}-5-methyl-1,3-dihydropyrimidine-2,4-dione) are each mixed with 5 μM of target 16S RNA fragment and analyzed by mass spectrometry. IBIS-326611 is shown in FIG. 5 to form a binary complex having an ion abundance 27.8% that of the unbound 16S RNA while IBIS-326645 in FIG. 6 forms a binary complex having an ion abundance 14.7% that of the unbound 16S RNA.
All MS experiments were performed by using an Apex II 70e ESI-FT-ICR MS (Bruker Daltonics, Billerica, Mass.) with an actively shielded 7 tesla superconducting magnet. RNA solutions were prepared in 50 mM NH4OAc (pH 7), mixed with 10% isopropanol to aid desolvation, and infused at a rate of 1.5 μL/min by using a syringe pump. Ions were formed in a modified electrospray source (Analytica, Branford, Conn.) by using an off-axis grounded electrospray probe positioned ca. 1.5 cm from the metallized terminus of the glass desolvation capillary biased at 5,000 V. A countercurrent flow of dry […] gas heated to 150° C. was used to assist in the desolvation process. Ions were accumulated in an external ion reservoir comprised of a radio frequency-only hexapole, a skimmer cone, and an auxiliary electrode for 1,000 ms before transfer into the trapped ion cell for mass analysis. Each spectrum was the result of the co-addition of 64 transients comprised of 524,288 data points acquired over a […] bandwidth, resulting in a 1.2-sec detection interval. All aspects of pulse sequence control, data acquisition, and postacquisition processing were performed by using a Bruker Daltonics data station running XMASS Version 4.0 on a Silicon Graphics (Mountain View, Calif.) R5000 computer.
RNA binding ligands are selected from a set of compounds using mass spectrometry. The RNA used for the target molecule is an RNA whose electrospray ionization properties have been optimized in conjunction with optimization of the electrospray ionization and desolvation conditions. […] A 50 μM stock solution of the RNA is purified, and dialyzed to remove sodium and potassium ions.
The compound set is pooled into mixtures of 8 members, each present at 1-10 mM in […]. A collection of these mixtures is diluted 1:50 into an aqueous solution containing 50-150 mM ammonium acetate buffer at pH 7.0, 1-5 μM RNA target, and 10-50% isopropanol, ethanol, or methanol to create the screening sample. The aqueous solution contains 100 μM each of 8 compounds, 50 mM ammonium acetate, 5 μM RNA target, and 25% isopropanol. These screening samples are arrayed in a 96-well microtiter plate, or added to individual vials for queuing into an automated robotic liquid hander under computer control by the mass spectrometer.
The source voltage potentials are adjusted to give stable electrospray ionization by monitoring the ion abundance of the free RNA. […] If available on the mass spectrometers, the partial gas pressure beyond the desolvation capillary is adjusted by throttling the pumping speed. This gas pressure may also be altered to optimize the ion abundance and observation of the ammonium ion adducts. After instrument performance has been optimized, the voltage potential between the capillary and skimmer lens is increased to reduce the abundance of the ion from the monoammonium-RNA complex to […] of the abundance of the ion from the RNA. These instrument parameters are used for detection of complexes between the RNA and compound set.
The compound set is screened for members that form non-covalent complexes with the RNA. […]

[2] = biological target: 16S ribosomal RNA fragment (27mer RNA, SEQ ID NO:1); experiment: ESI-MS titration of 2-DOS against 16S, polynomial fit for dissociation constants; assay type: binding, bacterial; conditions: 4th order polynomial fit, 100 mM ammonium acetate buffer
Procedure: 2′-O-ACE protected 27mer RNA ([…]; SEQ ID NO:1) was purchased from Dharmacon Research (Boulder, Colo.). Aqueous solutions were deprotected for 30 min at 60° C. in a 0.1M tetramethylenediamine acetate buffer at pH 3.5. […] All chemicals were purchased from Aldrich Chemicals (Milwaukee), except for 2-deoxystreptamine and 3,5-diamino-1-N-methyl-triazole, which were prepared according to Georgiadis et al (J. Carbohydr. Chem. 1991, 10, 739-748) and Kaiser et al (U.S. Pat. No. 2,648,670). Ligands were added to the indicated final concentrations from 20 mM aqueous solutions.
Identical sample preparations were used for experiments with FTICR mass spectrometer. […] Sample was introduced at 1.0 μL/min and the capillary interface unheated. Ions were stored for 1.25 sec in a hexapole ion guide prior to transfer to the trapped ion cell. The indicated gas pressure over the vacuum pump situated below the hexapole ion guide was ˜8×10^−6 mbar. The parallel measurements of relative activation energy were performed with the FTICR mass spectrometer by varying the potential difference between the capillary exit and the first skimmer lens element. Typically, 32 1.2 sec transients of 512 k data points were summed prior to Fourier transformation and display.
2-deoxystreptamine (2-DOS) bound to 16S at multiple locations as a function of increasing concentration. At 0.33 mM, one 2-DOS bound 16S, generating an [M-5H^+]^5− complex observed at m/z 1758.9. Complexes corresponding to three and four 2-DOS molecules bound concurrently to 16S appeared at concentrations above 3.3 mM. Knowledge of the binding stoichiometry lead to the use of a fourth-order polynomial for calculation of the respective dissociation constants (KD) (Greig et al., J. Am. Chem. Soc. 1995, 117, 10765-10766).

[3] = system: 27-mer fragment of ribosomal RNA comprising the 16S A-site; experiment: Mode of binding of ligand pairs by ESI-MS (presence or absence of ternary complex); parameters: species or system bacterial; conditions: for binding interaction of ligand pair 2-DOS / 3,5-DT on 16S RNA: 5 μM 16S, 100 μM 2-DOS, 0.5 mM 3,5-DT; for binding interaction of ligand pair 2-DOS / 2,4-diaminopyrimidine on 16S RNA: no ternary complex signal; for binding interaction of ligand pair Ibis-326732 / glucosamine on 16S RNA: 70 μM Ibis-326732, 100 μM glucosamine, 5 μM 16S RNA
Text: Ligands bind competitively for a target when the binding of one ligand prevents the binding of the other ligand is the result of the ligands binding to the target at the same location. In this situation, the mixture contains an equilibrium of two binary complexes, one of which being one ligand bound to the target and the other being the other ligand bound to the target. The ligand having the greater affinity for the target will predominate and thus have higher signal intensity for its binary complex with the target compared to the other ligand. Competitive binding interaction between two ligands is determined according to methods of the invention by analyzing the mixture by mass-spectrometry to detect the presence or lack of signal corresponding to a ternary complex where both ligands are bound to the target at the same time. The lack of signal for a ternary complex indicates a competitive binding interaction between the two ligands while the presence of the signal indicates a non-competitive interaction.
Accordingly, in an aspect of the present invention, there is provided a method for determining the relative interaction between at least two ligands with respect to a target substrate. In practicing this method an amount of each of the ligands is mixed with an amount of the target substrate to form a mixture. This mixture is analyzed by mass spectrometry to determine the presence or absence of a ternary complex corresponding to the simultaneous adduction of two of the ligands with the target substrate.
Ligands bind concurrently when the binding of one ligand to the target is unaffected by the binding of the other and is a consequence of the ligands binding to the target at distinct sites. […] The ligand having the greater affinity for the target will have higher signal intensity for its binary complex with the target compared to the other ligand. […] Particularly, the absolute ion abundance of the ternary complex (TL1L2) is compared to the relative ion abundance of the binary complexes (TL1 and TL2) which contribute to the formation of the ternary complex with respect to the unbound target (TL1×TL2/T). Since there are two binary complexes contributing the formation of the ternary complex, the comparison is with the sum of the two contributing binary complexes i.e. TL1×TL2/T+TL2×TL1/T. If the absolute ion abundance of the ternary complex is equal to the sum of the relative ion abundance of the contributing binary complexes, then the two ligands concurrently bind to the target substrate. Expressed another way, a pair of ligands are concurrent binders for a target if in either of the following equivalent formulae the value of y is equal to zero: […]
In the compound collection used in Example 1, those compounds that formed complexes with the RNA target are pooled into groups of 4-10 and screened again as a mixture against the RNA target as outlined in Example 1. Since all of the compounds have been shown previously to bind to the RNA, three possible changes in the relative ion abundance are observed in the mass spectrometry assay. If two compounds bind at the same site, the ion abundance of the RNA complex for the weaker binder will be decreased through competition for RNA binding with the higher affinity binder (competitive binding). An example is presented in FIG. 3, where the ion abundance from a glucosamine-RNA complex is reduced as glucosamine is displaced from the RNA by addition of a benzimidazole compound. If two compounds can bind at distinct sites, signals will be observed from the respective binary complexes with the RNA and from the ternary complex where both compounds bind to the RNA simultaneously (concurrent binders). […] The relative ion abundance from the […] for 3,5-DT to the free RNA is measured, as is the relative ion abundance from the ternary complex between 3,5-DT, 2-DOS, and RNA and the binary complex. […]

[4] = system: 16S ribosomal RNA fragment; experiment: Relative solution affinities of ligand:16S complexes; assay type: binding, bacterial; conditions: normalized to the solution affinity of 4-aminobenzamidine

Q: Which “affinity for 16S RNA compared with another ligand (ion abundance of binary complexes)” value [1] does the source give for “1-{2-[(3R)-4-(2S)-2-amino-3-hydroxypropanoyl)-3-methylpiperazinyl]-2-oxoethyl}-5-methyl-1,3-dihydropyrimidine-2,4-dione [IBIS-271583]” here?
A: Its value is “greater affinity for 16S than either parent compound”.

Q: What about the “ion abundance of binary ligand:16S complex relative to unbound 16S RNA” value [1] of the same compound?
A: Its value is 14.7%.

Q: What about the “ion abundance of binary ligand:16S complex relative to unbound 16S RNA” value ([1]; listed as IBIS-271483) of the same compound?
A: Its value is 52.4%.

Q: And the “affinity for 16S RNA compared with another ligand (ion abundance of binary complexes)” value ([1]; listed as IBIS-271483)?
A: Its value is “greater affinity for the target 16S RNA than either of the parent compounds”.

Q: With `N[C@@H]1C[C@H](N)[C@@H](O)C(O)[C@H]1O` (stereo partly drawn) [2-DOS, 2-deoxystreptamine] as the compound, how does the “affinity for 16S RNA compared with another ligand (ion abundance of binary complexes)” value [1] read?
A: The value was “greater binding affinity for the target RNA than DT”.

Q: What about the Kd ([2]; read-out: KD of 2-DOS:16S complex (first 2-DOS)) of the same compound?
A: The Kd was 610 µM and 600 µM.

Q: And the Kd ([2]; read-out: KD of (2-DOS)2:16S complex (second 2-DOS))?
A: The Kd was 1400 ± 100 µM.

Q: And the Kd ([2]; read-out: KD of (2-DOS)3:16S complex (third 2-DOS))?
A: Its Kd is 4000 ± 1000 µM.

Q: What about the “binding interaction of ligand pair 2-DOS / 3,5-DT on 16S RNA” value [3] of the same compound?
A: The value was “concurrent binding interaction; also recorded: cooperative binding”.

Q: What about the “binding interaction of ligand pair 2-DOS / 2,4-diaminopyrimidine on 16S RNA” value [3] of the same compound?
A: Its value is “preferred sites overlap and 2-DOS displaces DAP for binding”.

Q: For `NN1CN(SCc2ccccc2)C=N1` [2-amino-4-benzylthio-1,2,4-triazole], which “complex with RNA target observed by ESI-MS” value [1] is on record?
A: The value was “seen”.

Q: How did the “affinity for 16S (order of magnitude)” value [1] turn out when `Nc1n[nH]c(N)n1` [3,5-DT, 3,5-diamino-1,2,4-triazole] was run?
A: Its value is “˜mM affinities”.

Q: What about the “binding interaction of ligand pair 2-DOS / 3,5-DT on 16S RNA” value [3] of the same compound?
A: The value was “cooperative binding; also recorded: concurrent binding”.

Q: What about the “binding interaction of ligand pair 2-DOS / 3,5-DT on 16S RNA” value ([3]; listed as DT) of the same compound?
A: Its value is “concurrent binding interaction”.

Q: For `Cn1nc(N)nc1N` [3,5-diamino-1-N-methyltriazole], which “complex with RNA target observed by ESI-MS” value [1] is on record?
A: Its value is “not observed”.

Q: Which “Relative Soln. Affinity” value [4] does the source give for `N=C(N)c1ccc(N)cc1` [ABA, 4-aminobenzamidine] here?
A: Its value is 1.00^b.

Q: How did the “Relative Soln. Affinity” value [4] turn out when `NC(=O)c1[nH]cnc1N` [AICA, 4-aminoimidazole-5-carboxamide] was run?
A: Its value is “.26 + 0.04”.

Q: Which “affinity for 16S (order of magnitude)” value [1] does the source give for `Nc1ccnc(N)n1` [DAP, 2,4-diaminopyrimidine] here?
A: Its value is “˜mM affinities”.

Q: And the “Relative Soln. Affinity” value [4]?
A: Its value is “.17 + 0.04”.

Q: What about the “binding interaction of ligand pair 2-DOS / 2,4-diaminopyrimidine on 16S RNA” value [3] of the same compound?
A: The value was “preferred sites overlap and 2-DOS displaces DAP for binding”.

Q: How did the “Relative Soln. Affinity” value [4] turn out when `N[C@H]1C(O)O[C@H](CO)[C@@H](O)[C@@H]1O` (stereo partly drawn) [GA, glucosamine] was run?
A: The value was “lower than GBI”.

Q: What about the “Relative Soln. Affinity” value ([4]; listed as Glucosamine) of the same compound?
A: Its value is “.86 + 0.03”.

Q: And the “binding interaction of ligand pair Ibis-326732 / glucosamine on 16S RNA” value [3]?
A: The value was “competitive binders”.

Q: With `N=C(N)Nc1nc2ccccc2[nH]1` [GBI, 2-guanidylbenzimidazole] as the compound, how does the “Relative Soln. Affinity” value [4] read?
A: The value was “.99 + 0.02”.

Q: For `N[C@@H](CO)C(=O)N1CCNCC1` [IBIS-326611, (2S)-2-amino-3-hydroxy-1-piperazinylpropan-1-one], which “ion abundance of binary ligand:16S complex relative to unbound 16S RNA” value [1] is on record?
A: The value was 27.8%.

Q: For `Nc1cccc2nc(C3CCNCC3)[nH]c12` [Ibis-326732, 4-amino-2-piperidin-4-ylbenzimidazole], which “affinity for 16S RNA compared with another ligand (ion abundance of binary complexes)” value [1] is on record?
A: Its value is “greater affinity than glucosamine”.

Q: And the “binding interaction of ligand pair Ibis-326732 / glucosamine on 16S RNA” value [3]?
A: Its value is “competitive binders”.
